Like-named read-outs stand apart in the source and are kept apart here.
What was measured:
[1] = very low and variable; cited from earlier work
SAP [2] = target: T1, SAP (Homo sapiens, UniProt P02743); settings: patients with Alzheimer's disease, cited from earlier work
T1 construct: Depletion of plasma SAP by CPHPC, from the normal 20-50 mg/L to <0.1 mg/L; host or cells: circulating SAP in plasma and CSF of patients

SAP [3] = target: T1, SAP; settings: systemic amyloidosis patients, for as long as the drug was administered; cited from earlier work
CYP2D6 = target: T2, CYP2D6 (Homo sapiens, UniProt P10635); assay: Cytochrome p450 inhibition assay (bactosomes, fluorogenic substrate MMC); assay type: biochemical; settings: recombinant human CYP (Cypex bactosomes)
T2 construct: purchased Cypex; host or cells: bactosomes (bacterial membranes)
Experimental: (§1) The assay was designed to evaluate inhibition on cytochrome P450 (CYP) 3A4, 2C9, 2C19, 1A2 and 2D6 enzymes from bactosomes source using fluorogenic substrates. Compound (compound of Formula (I) or Comparator Compound) was dissolved in methanol at 1.65 mM. Daughter solutions were prepared in methanol at 660, 264, 106, 42, 17, 6.8, 2.7, 1.1 and 0.43 μM. NADPH cofactor was prepared with Glucose-6-phosphate (7.8 mg), Glucose-6-phosphate dehydrogenase (6 units), NADP (1.7 mg) per 1 mL in NaHCO3 2%. Substrate preparation was as follows: • 7-Methoxy-4-triFluoromethyl Coumarin-3-Acetic acid ethyl ester (FCA): 12.5 mM in acetonitrile • EthoxyResorufin (ER): 0.05 mM in acetonitrile • 4-MethylaminoMethyl-7-Methoxy Coumarin (MMC): 2.5 mM in methanol • 3-Butyryl-7Methoxy Coumarin (BMC): 2.5 mM in DMSO • 7-BenzyloxyQuinoline (7BQ): 2.5 mM in acetonitrile • DiEthoxyFluorescein (DEF): 0.1 mM in acetonitrile Bactosomes (Cypex source) at the concentration of 10 mg of protein per ml were diluted in phosphate buffer 50 mM pH7.4: • 0.33 ml of bactosomes CYP2C9 with 23.8 ml of buffer and 0.11 ml of FCA • 0.33 ml of bactosomes CYP1A2 with 23.6 ml of buffer and 0.275 ml of ER • 0.33 ml of bactosomes CYP2D6 with 23.8 ml of buffer and 0.11 ml of MMC • 0.33 ml of bactosomes CYP2C19 with 23.8 ml of buffer and 0.11 ml of BMC • 0.33 ml of bactosomes CYP3[…] with 23.6 ml of buffer and 0.275 ml of 7BQ • 0.33 ml of bactosomes CYP3[…] with 23.6 ml of buffer and 0.275 ml of DEF Pre-Incubation consisted in mixing 5 μl of compound solution with 220 μl diluted bactosomes and warming it at 37° C. for 10 min. Incubation was started with the addition of 25 μl of NADPH. […]

CYP2C9 = target: T3, CYP2C9 (Homo sapiens, UniProt P11712); assay: Cytochrome p450 inhibition assay (bactosomes, fluorogenic substrate FCA); assay type: biochemical; settings: recombinant human CYP (Cypex bactosomes)
T3 construct: purchased Cypex; host or cells: bactosomes (bacterial membranes)
Experimental: as §1

CYP3A4 = target: T4, CYP3A4 (Homo sapiens, UniProt P08684); assay: Cytochrome p450 inhibition assay (bactosomes, fluorogenic substrates 7BQ and DEF); assay type: biochemical; settings: recombinant human CYP (Cypex bactosomes)
T4 construct: purchased Cypex; host or cells: bactosomes (bacterial membranes)
Experimental: The assay was designed to evaluate inhibition on cytochrome P450 (CYP) 3A4, 2C9, 2C19, 1A2 and 2D6 enzymes from bactosomes source using fluorogenic substrates. Compound (compound of Formula (I) or Comparator Compound) was dissolved in methanol at 1.65 mM. Daughter solutions were prepared in methanol at 660, 264, 106, 42, 17, 6.8, 2.7, 1.1 and 0.43 μM. NADPH cofactor was prepared with Glucose-6-phosphate (7.8 mg), Glucose-6-phosphate dehydrogenase (6 units), NADP (1.7 mg) per 1 mL in NaHCO3 2%. Substrate preparation was as follows: • 7-Methoxy-4-triFluoromethyl Coumarin-3-Acetic acid ethyl ester (FCA): 12.5 mM in acetonitrile • EthoxyResorufin (ER): 0.05 mM in acetonitrile • 4-MethylaminoMethyl-7-Methoxy Coumarin (MMC): 2.5 mM in methanol • 3-Butyryl-7Methoxy Coumarin (BMC): 2.5 mM in DMSO • 7-BenzyloxyQuinoline (7BQ): 2.5 mM in acetonitrile • DiEthoxyFluorescein (DEF): 0.1 mM in acetonitrile Bactosomes (Cypex source) at the concentration of 10 mg of protein per ml were diluted in phosphate buffer 50 mM pH7.4: • 0.33 ml of bactosomes CYP2C9 with 23.8 ml of buffer and 0.11 ml of FCA • 0.33 ml of bactosomes CYP1A2 with 23.6 ml of buffer and 0.275 ml of ER • 0.33 ml of bactosomes CYP2D6 with 23.8 ml of buffer and 0.11 ml of MMC • 0.33 ml of bactosomes CYP2C19 with 23.8 ml of buffer and 0.11 ml of BMC • 0.33 ml of bactosomes CYP3[…] with 23.6 ml of buffer and 0.275 ml of 7BQ • 0.33 ml of bactosomes CYP3[…] with 23.6 ml of buffer and 0.275 ml of DEF Pre-Incubation consisted in mixing 5 μl of compound solution with 220 μl diluted bactosomes and warming it at 37° C. for 10 min. Incubation was started with the addition of 25 μl of NADPH. Then fluorescence of substrate metabolite was read in a SAFIRE instrument (from Tecan) for 5 min: • FCA (2C9): Excitation at 410 nm and Emission at 510 nm • ER (1A2): Excitation at 530 nm and Emission at 590 nm • MMC (2D6): Excitation at 410 nm and Emission at 485 nm • BMC (2C19): Excitation at 410 nm and Emission at 465 nm • 7BQ (3A4H): Excitation at 410 nm and Emission at 530 nm • DEF (3A4L): Excitation at 485 nm and Emission at 530 nm Plotting of inhibition of substrate production against compound concentration allowed the determination of IC50 values.

CYP2C19 = target: T5, CYP2C19 (Homo sapiens, UniProt P33261); assay: Cytochrome p450 inhibition assay (bactosomes, fluorogenic substrate BMC); assay type: biochemical; settings: recombinant human CYP (Cypex bactosomes)
T5 construct: purchased Cypex; host or cells: bactosomes (bacterial membranes)
Experimental: as §1

CYP1A2 = target: T6, CYP1A2 (Homo sapiens, UniProt P05177); assay: Cytochrome p450 inhibition assay (bactosomes, fluorogenic substrate ER); assay type: biochemical; settings: recombinant human CYP (Cypex bactosomes)
T6 construct: purchased Cypex; host or cells: bactosomes (bacterial membranes)
T6 sequence (P05177 1-516): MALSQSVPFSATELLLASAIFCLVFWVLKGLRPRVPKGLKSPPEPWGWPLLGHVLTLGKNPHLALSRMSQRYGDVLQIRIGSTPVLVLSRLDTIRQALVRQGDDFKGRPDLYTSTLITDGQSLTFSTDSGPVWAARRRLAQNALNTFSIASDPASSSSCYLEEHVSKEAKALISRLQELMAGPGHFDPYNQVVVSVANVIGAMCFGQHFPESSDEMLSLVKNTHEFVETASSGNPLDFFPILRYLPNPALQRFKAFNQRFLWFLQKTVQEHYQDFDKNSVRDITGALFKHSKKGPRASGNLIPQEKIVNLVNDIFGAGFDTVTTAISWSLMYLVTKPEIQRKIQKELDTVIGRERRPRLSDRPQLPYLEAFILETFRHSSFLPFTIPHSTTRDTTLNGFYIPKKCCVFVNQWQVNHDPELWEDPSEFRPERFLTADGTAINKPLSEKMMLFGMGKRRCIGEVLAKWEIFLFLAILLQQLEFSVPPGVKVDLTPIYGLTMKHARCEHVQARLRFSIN
Experimental: as §1

T4 sequence (P08684 whole entry): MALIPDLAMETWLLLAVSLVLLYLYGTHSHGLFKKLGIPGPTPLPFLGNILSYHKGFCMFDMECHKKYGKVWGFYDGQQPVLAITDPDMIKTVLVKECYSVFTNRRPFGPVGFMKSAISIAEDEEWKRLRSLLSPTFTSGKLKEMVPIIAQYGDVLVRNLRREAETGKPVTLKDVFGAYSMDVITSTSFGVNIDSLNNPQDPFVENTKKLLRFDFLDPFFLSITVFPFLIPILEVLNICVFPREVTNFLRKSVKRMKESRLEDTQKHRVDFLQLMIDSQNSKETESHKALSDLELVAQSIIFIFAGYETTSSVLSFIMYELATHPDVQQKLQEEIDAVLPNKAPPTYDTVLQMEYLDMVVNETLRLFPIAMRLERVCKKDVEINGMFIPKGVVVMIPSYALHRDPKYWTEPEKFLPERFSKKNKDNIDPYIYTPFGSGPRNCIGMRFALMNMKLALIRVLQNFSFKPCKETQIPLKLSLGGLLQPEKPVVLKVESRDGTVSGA
T1 sequence (P02743 20-223): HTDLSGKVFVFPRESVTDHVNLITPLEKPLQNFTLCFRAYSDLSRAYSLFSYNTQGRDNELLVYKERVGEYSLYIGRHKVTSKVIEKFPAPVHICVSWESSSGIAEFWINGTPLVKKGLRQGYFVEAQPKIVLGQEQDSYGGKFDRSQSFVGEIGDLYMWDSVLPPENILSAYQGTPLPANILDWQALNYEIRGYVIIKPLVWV
T3 sequence (P11712 whole entry): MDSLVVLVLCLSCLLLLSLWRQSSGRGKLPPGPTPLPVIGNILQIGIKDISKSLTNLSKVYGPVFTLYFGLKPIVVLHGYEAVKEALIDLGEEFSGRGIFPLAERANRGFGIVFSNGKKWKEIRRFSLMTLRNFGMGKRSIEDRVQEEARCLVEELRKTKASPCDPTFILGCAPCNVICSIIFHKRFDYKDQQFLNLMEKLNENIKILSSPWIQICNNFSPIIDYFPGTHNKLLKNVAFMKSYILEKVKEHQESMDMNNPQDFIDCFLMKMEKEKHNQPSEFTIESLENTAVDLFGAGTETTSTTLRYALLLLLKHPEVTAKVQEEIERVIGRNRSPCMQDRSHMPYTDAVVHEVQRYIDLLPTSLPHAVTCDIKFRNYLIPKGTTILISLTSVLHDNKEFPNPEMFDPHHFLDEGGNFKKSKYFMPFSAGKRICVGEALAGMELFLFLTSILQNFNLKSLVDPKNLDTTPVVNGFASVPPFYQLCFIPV
T2 sequence (P10635 whole entry): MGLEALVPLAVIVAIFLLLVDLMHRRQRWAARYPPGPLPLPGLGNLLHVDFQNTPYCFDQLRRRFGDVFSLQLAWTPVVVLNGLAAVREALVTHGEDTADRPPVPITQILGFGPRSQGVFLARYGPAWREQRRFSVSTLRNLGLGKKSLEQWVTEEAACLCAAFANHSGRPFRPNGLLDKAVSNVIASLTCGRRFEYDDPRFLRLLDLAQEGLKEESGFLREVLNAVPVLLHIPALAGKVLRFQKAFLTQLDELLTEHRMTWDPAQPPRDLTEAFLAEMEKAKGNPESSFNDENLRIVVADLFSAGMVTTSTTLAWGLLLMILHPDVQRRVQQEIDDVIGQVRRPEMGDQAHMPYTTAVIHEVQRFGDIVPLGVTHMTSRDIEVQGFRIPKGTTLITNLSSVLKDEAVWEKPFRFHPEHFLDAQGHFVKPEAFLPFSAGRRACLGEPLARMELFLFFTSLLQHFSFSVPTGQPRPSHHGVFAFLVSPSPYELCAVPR
T5 sequence (P33261 whole entry): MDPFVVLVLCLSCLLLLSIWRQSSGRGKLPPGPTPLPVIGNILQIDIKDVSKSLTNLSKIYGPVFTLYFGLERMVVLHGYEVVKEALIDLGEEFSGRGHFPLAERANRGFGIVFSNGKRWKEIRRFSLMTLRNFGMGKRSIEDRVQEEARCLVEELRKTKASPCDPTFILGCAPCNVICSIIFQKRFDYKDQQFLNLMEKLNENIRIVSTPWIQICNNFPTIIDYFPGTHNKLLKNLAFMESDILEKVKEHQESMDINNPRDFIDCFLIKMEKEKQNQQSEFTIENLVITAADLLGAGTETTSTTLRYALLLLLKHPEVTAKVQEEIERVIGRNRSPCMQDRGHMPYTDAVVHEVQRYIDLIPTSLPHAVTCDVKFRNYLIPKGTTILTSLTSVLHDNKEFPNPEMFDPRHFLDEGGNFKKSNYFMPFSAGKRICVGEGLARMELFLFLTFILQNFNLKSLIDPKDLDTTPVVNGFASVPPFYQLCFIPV

| SMILES | Oral bioavailability [1] | CSF SAP concentration after depletion (SAP [2]; from 2-30 μg/L) | Plasma SAP after depletion (SAP [2]; from the normal 20-50 mg/L) | Depletion of circulating SAP (SAP [3]) | IC50 (CYP2D6) | IC50 (CYP2C9) | IC50 CYP3A4 (7BQ) (CYP3A4; substrate 7BQ) | IC50 (CYP3A4; substrate 7BQ, read-out: IC50 CYP3A4 (7BQ)) | IC50 CYP3A4 (DEF) (CYP3A4; substrate DEF) | IC50 (CYP3A4; substrate DEF, read-out: IC50 CYP3A4 (DEF)) | IC50 (CYP2C19) | IC50 (CYP1A2) |
| --- | --- | --- | --- | --- | --- | --- | --- | --- | --- | --- | --- | --- |
| O=C(O)[C@H]1CCCN1C(=O)CCCCC(=O)N1CCC[C@@H]1C(=O)O [CPHPC, (R)-1-[6-[(R)-2-carboxy-pyrrolidin-1-yl]-6-oxo-hexanoyl]pyrrolidine-2-carboxylic acid] | 3-5% | < 0.1 µg/L | < 0.1 mg/L | almost complete depletion |  |  |  |  |  |  |  |  |
| CC(OC(=O)[C@H]1CCCN1C(=O)CCCCC(=O)N1CCC[C@@H]1C(=O)OC(C)OC(=O)C(C)(C)C)OC(=O)C(C)(C)C (stereo partly drawn) [Comparator Compound, (2R,2′R)-bis(1-(pivaloyloxy)ethyl) 1,1′-adipoylbis(pyrrolidine-2-carboxylate), reference compound] |  |  |  |  | > 33 µM | 26 µM | significant inhibition | 5.5 µM | significant inhibition | 1.1 µM | > 33 µM | > 33 µM |
